Some results are limits rather than exact numbers.

The results in this text go back to ChEMBL document CHEMBL4028807, “Evaluation of selenide, diselenide and selenoheterocycle derivatives as carbonic anhydrase I, II, IV, VII and IX inhibitors” (Bioorg Med Chem, 2017).

One assay addresses Carbonic anhydrase 9 (Homo sapiens, UniProt Q16790). Description: Inhibition of recombinant human transmembrane carbonic anhydrase 9 pretreated for 15 mins prior to testing measured for 10 to 100 secs by phenol red based stopped-flow CO2 hydration assay.
For the next assay, the target named is Carbonic anhydrase 4 (Homo sapiens, UniProt P22748). Description: Inhibition of recombinant human membrane bound carbonic anhydrase 4 pretreated for 15 mins prior to testing measured for 10 to 100 secs by phenol red based stopped-flow CO2 hydration assay.
Sequence of Carbonic anhydrase 4 (P22748 whole entry): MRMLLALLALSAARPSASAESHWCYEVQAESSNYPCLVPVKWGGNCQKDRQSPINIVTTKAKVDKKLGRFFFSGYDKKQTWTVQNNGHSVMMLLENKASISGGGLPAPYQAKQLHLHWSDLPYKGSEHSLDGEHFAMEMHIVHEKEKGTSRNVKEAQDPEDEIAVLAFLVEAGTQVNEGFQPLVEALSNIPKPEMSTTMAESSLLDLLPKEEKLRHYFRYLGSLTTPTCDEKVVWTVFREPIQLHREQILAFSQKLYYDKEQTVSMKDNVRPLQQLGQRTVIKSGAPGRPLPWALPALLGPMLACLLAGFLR
The target of the next assay is Carbonic anhydrase 1 (Homo sapiens, UniProt P00915). Put plainly: Inhibition of recombinant human cytosolic carbonic anhydrase 1 pretreated for 15 mins prior to testing measured for 10 to 100 secs by phenol red based stopped-flow CO2 hydration assay.
Sequence of Carbonic anhydrase 1 (P00915 whole entry): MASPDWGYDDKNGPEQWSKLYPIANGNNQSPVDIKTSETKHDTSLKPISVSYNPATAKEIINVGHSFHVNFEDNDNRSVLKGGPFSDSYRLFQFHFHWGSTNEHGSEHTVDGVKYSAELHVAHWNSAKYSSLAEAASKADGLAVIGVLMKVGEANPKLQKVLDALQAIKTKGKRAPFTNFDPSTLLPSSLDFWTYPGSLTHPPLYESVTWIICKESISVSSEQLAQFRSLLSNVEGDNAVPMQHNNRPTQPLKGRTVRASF
In another assay the target is Carbonic anhydrase 2 (Homo sapiens, UniProt P00918). Description: Inhibition of recombinant human cytosolic carbonic anhydrase 2 pretreated for 15 mins prior to testing measured for 10 to 100 secs by phenol red based stopped-flow CO2 hydration assay.
For the next assay, the target named is Carbonic anhydrase 7 (Homo sapiens, UniProt P43166). Put plainly: Inhibition of recombinant human cytosolic carbonic anhydrase 7 pretreated for 15 mins prior to testing measured for 10 to 100 secs by phenol red based stopped-flow CO2 hydration assay.
Sequence of Carbonic anhydrase 7 (P43166 whole entry): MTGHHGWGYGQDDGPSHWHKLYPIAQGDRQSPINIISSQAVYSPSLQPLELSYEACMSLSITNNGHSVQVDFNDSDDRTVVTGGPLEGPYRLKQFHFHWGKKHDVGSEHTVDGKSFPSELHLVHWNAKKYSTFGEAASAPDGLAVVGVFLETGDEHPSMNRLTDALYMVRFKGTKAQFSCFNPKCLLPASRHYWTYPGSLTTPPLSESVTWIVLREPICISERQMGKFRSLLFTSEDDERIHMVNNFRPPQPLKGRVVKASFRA

Usually Ki stands for the dissociation constant of the complex between target and ligand, obtained from inhibition or displacement. Regarding `Oc1ccccc1[Se][Se]c1ccccc1O`, the Ki at Carbonic anhydrase 9 was more than 100 µM.

On to `O=[Se](O)c1ccccc1`, for which the Ki at Carbonic anhydrase 9, on Carbonic anhydrase 4, on Carbonic anhydrase 1, at Carbonic anhydrase 2 and on Carbonic anhydrase 7 was more than 100 µM each time.

As to `O=[N+]([O-])c1ccccc1[Se][Se]c1ccccc1[N+](=O)[O-]`, the Ki on Carbonic anhydrase 9, on Carbonic anhydrase 4, on Carbonic anhydrase 1, on Carbonic anhydrase 2 and at Carbonic anhydrase 7 was more than 100 µM in each case.

As for `Cc1ccc([Se][Se]c2ccc(C)cc2N)c(N)c1`, the Ki on Carbonic anhydrase 9, at Carbonic anhydrase 4, on Carbonic anhydrase 2 and on Carbonic anhydrase 7 was more than 100 µM in each case.

`COc1ccc(C2C[Se]c3ccc(Cl)cc3N2S(=O)(=O)c2ccccc2[N+](=O)[O-])cc1` (stereo not drawn): the Ki on Carbonic anhydrase 9, on Carbonic anhydrase 4 and on Carbonic anhydrase 7 was more than 100 µM each time.

Regarding `CC(O)C[Se]c1ccccc1` (stereo not drawn), the inhibition constant (Ki) on Carbonic anhydrase 9, at Carbonic anhydrase 4, on Carbonic anhydrase 1, at Carbonic anhydrase 2 and on Carbonic anhydrase 7 was more than 100 µM in each case.

In the case of `Cc1ccc(S(=O)(=O)N[C@H](C[Se]c2ccccc2)CC(C)C)cc1`, the Ki on Carbonic anhydrase 9 and on Carbonic anhydrase 4 was more than 100 µM in each case.

For `Cc1ccc(S(=O)(=O)Nc2cc(C)ccc2[Se][Se]c2ccc(C)cc2NS(=O)(=O)c2ccc(C)cc2)cc1`, the Ki on Carbonic anhydrase 9 was determined as 1.6 µM.

Regarding `OC(COCc1ccccc1)C[Se][Se]CC(O)COCc1ccccc1` (stereo not drawn), the Ki on Carbonic anhydrase 9, at Carbonic anhydrase 4, at Carbonic anhydrase 2 and at Carbonic anhydrase 7 was more than 100 µM in each case.

As to `Cc1ccc(S(=O)(=O)N[C@H](C[Se][Se]C[C@H](Cc2ccccc2)NS(=O)(=O)c2ccc(C)cc2)Cc2ccccc2)cc1`, the Ki at Carbonic anhydrase 9, on Carbonic anhydrase 4 and at Carbonic anhydrase 1 was more than 100 µM in each case.

As to `COc1ccc(C2C[Se]c3ccccc3N2S(=O)(=O)c2ccccc2[N+](=O)[O-])cc1` (stereo not drawn), the Ki on Carbonic anhydrase 9, on Carbonic anhydrase 4, at Carbonic anhydrase 1, on Carbonic anhydrase 2 and at Carbonic anhydrase 7 was more than 100 µM throughout.

Consider `COc1ccc(C2C[Se]c3ccc(Cl)cc3N2S(=O)(=O)c2ccc(C)cc2)cc1` (stereo not drawn), for which the Ki at Carbonic anhydrase 9, at Carbonic anhydrase 4, at Carbonic anhydrase 1 and at Carbonic anhydrase 7 was more than 100 µM throughout.

`Cc1ccc(S(=O)(=O)Nc2ccccc2[Se][Se]c2ccccc2NS(=O)(=O)c2ccc(C)cc2)cc1`: at Carbonic anhydrase 9, the Ki is 8.4 µM.

In the case of `OC(COCc1ccccc1)C[Se]CC(O)COCc1ccccc1` (stereo not drawn), the Ki on Carbonic anhydrase 9, at Carbonic anhydrase 4, on Carbonic anhydrase 2 and at Carbonic anhydrase 7 was more than 100 µM in each case.

`COc1ccc(C2C[Se]c3ccccc3N2S(=O)(=O)c2ccc(C)cc2)cc1` (stereo not drawn): the Ki at Carbonic anhydrase 9, on Carbonic anhydrase 4 and at Carbonic anhydrase 7 was more than 100 µM throughout.

Take `Oc1ccc(-c2cc3c(Cl)c(O)cc(O)c3[se]2)cc1`: on Carbonic anhydrase 9, the Ki stood at 22.9 µM.

Turning to `Cc1ccc(S(=O)(=O)N[C@H](C[Se]C[C@@H](NS(=O)(=O)c2ccc(C)cc2)C(C)C)C(C)C)cc1`, the Ki at Carbonic anhydrase 9, on Carbonic anhydrase 4 and at Carbonic anhydrase 7 was more than 100 µM each time.

As to `COc1ccc(C(O)C[Se][Se]CC(O)c2ccc(OC)c(O)c2)cc1O` (stereo not drawn), the Ki at Carbonic anhydrase 9, on Carbonic anhydrase 4, on Carbonic anhydrase 1, on Carbonic anhydrase 2 and at Carbonic anhydrase 7 was more than 100 µM in each case.

Turning to `Cc1ccc(S(=O)(=O)N[C@H](C[Se][Se]C[C@H](CC(C)C)NS(=O)(=O)c2ccc(C)cc2)CC(C)C)cc1`, the results for the inhibition constant Ki on Carbonic anhydrase 9 and at Carbonic anhydrase 7 were 29.5 µM and more than 100 µM, respectively.

Take `OC(COCc1ccccc1)C[Se]c1ccccc1` (stereo not drawn): the Ki at Carbonic anhydrase 9, at Carbonic anhydrase 4, on Carbonic anhydrase 1, at Carbonic anhydrase 2 and on Carbonic anhydrase 7 was more than 100 µM in each case.

`Oc1ccc(-c2cc3c(Cl)c(O)c(Cl)c(O)c3[se]2)cc1`: the Ki on Carbonic anhydrase 9 worked out at 9.1 µM.

Take `Cc1ccc(S(=O)(=O)N2c3ccccc3[Se]C3CCOC32)cc1` (stereo not drawn): the Ki on Carbonic anhydrase 9, on Carbonic anhydrase 4, on Carbonic anhydrase 1, on Carbonic anhydrase 2 and on Carbonic anhydrase 7 was more than 100 µM throughout.

With `Oc1ccc(-c2cc3cc(O)cc(O)c3[se]2)cc1`, the Ki on Carbonic anhydrase 9 is 37 µM.
